Assay: gradient 5% acetonitrile 3 min, to 50% in 2 min, to 85% in 15 min, held 3 min, 100 µL/min
Conditions: column: Zorbax Extend-C18 2.1 x 50 mm; eluents: water / acetonitrile, 0.1% formic acid
Procedure, shortened: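 Standards, all pure, were combined into mixtures of ~100 molecules and run at 100 μL/min on a Zorbax Extend-C18 column (2.1 × 50 mm, 1.8 μm) with water and acetonitrile, each containing 0.1% formic acid. A coupled quadrupole time-of-flight mass spectrometer operated in positive and negative ionization mode. Retention time values come from computationally picked adduct peaks, each inspected manually.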

Compound	RP-LC retention time
COC1CN(c2cccc(F)c2)C12CCN(Cc1ccc(F)c(F)c1)CC2 (stereo not drawn)	785 s
CCCc1cc(N2CCN(c3ccccn3)CC2)n2nc3nc(C)cc(C)c3c2n1	615 s
Cc1cccc(S(=O)(=O)N2CCc3c(C(=O)NCCCN4CCCCC4)cccc32)c1	680 s
Cc1cccc(NS(=O)(=O)c2cc(-c3[nH]ncc3C(=O)N(C)C)oc2C)c1	678 s
O=C(Nc1cccc(Cl)c1)N1CCN(Cc2nc3ccccc3o2)CC1	728 s
O=C(Nc1ccc(OC(F)(F)F)cc1)C1CCCN(C(=O)c2cc(-c3ccncc3)n[nH]2)C1 (stereo not drawn)	692 s
CC(C)c1ccc(NC(=O)Cn2nc3c4sc(N(C)C)nc4ncn3c2=O)cc1	782 s
O=C(NCc1ccccc1C(F)(F)F)c1cn2c(n1)CCCC2	640 s
CCCCCCNC(=O)C1CCN(C(=O)C(C)(C)C)CC1	804 s
COc1cccc(Cc2nc(-c3cccc(-c4ccn[nH]4)c3)no2)c1	932 s
CN(C)C(=O)CN1C(=O)COc2ccc(C(=O)N3CCN(c4ccc(F)cc4)CC3)cc21	715 s
CNC(=O)c1nc(C(=O)NCCc2ccc(Cl)cc2)cs1	771 s
Cc1cc(N2CCOCC2)nc(N2CCN(S(=O)(=O)c3ccc(-c4ccccc4)cc3)CC2)n1	803 s
Cc1c(C(=O)N2CCN(C(C)C)CC2)cnn1-c1cc(-c2nc(C(C)(C)C)no2)ccn1	685 s
Cc1c(Cl)cccc1NC(=O)CC1COc2ccccc2NC1=O (stereo not drawn)	756 s
CN(C)c1cnc(-n2cc(NC(=O)NCCc3ccccc3)cn2)nc1	718 s
CC1CCc2nc3ncn(CC(=O)NCCC4=CCCCC4)c(=O)c3cc2C1 (stereo not drawn)	847 s
Cc1cc2c(c(=O)n(-c3ccc(F)cc3)c(=O)n2CC(=O)Nc2ccc(F)c(Cl)c2)n1C	854 s
CCOC(=O)c1noc2ncnc(NCC3CCN(Cc4ccccc4F)CC3)c12	661 s
CCn1cc(CCN2CCN(S(=O)(=O)c3ccc(C)c(F)c3)CC2)c2cccnc21	677 s
CCN(CC)CCNC(=O)C1COc2ccc(OC)cc2C1 (stereo not drawn)	602 s
CCOc1ccc(-c2nc(NC(=O)c3c(F)cccc3F)sc2C)cc1	1110 s

Compound	RP-LC retention time
CCCNC(=O)CN1C(=O)C2CCCCN2c2ccc(S(=O)(=O)N(CC)CC)cc21 (stereo not drawn)	862 s
CCOCCOC(=O)C1=C(C)NC2=C(C(=O)C(C(=O)OC)C(C)C2)C1c1cccc(F)c1 (stereo not drawn)	894 s
CCS(=O)(=O)N1CCC([C@@H](C)n2c(C)c(C(=O)NCc3c(OC)cc(C)[nH]c3=O)c3ccccc32)CC1	777 s
CC(Oc1ccccc1)C(=O)N1CCN(c2nc(CN3CCCCC3)cs2)CC1 (stereo not drawn)	650 s
CC(NC(=O)c1cccc(NC(=O)c2ccco2)c1)C(=O)N1CCCc2ccccc21 (stereo not drawn)	804 s
CN1c2ccc(F)cc2C(=O)NC12CCN(C(=O)NCc1ccc(F)cc1)CC2	750 s
COc1ccc(OC)c(S(=O)(=O)N2CCC(c3cc(-c4cccc(C)c4)n[nH]3)CC2)c1	960 s
CCC(C)NC(=O)N1CC(Oc2ccc(-c3nc(-c4ccccc4)no3)cc2)C1 (stereo not drawn)	712 s
Cc1cc(=O)oc2c(C)c(OCC(O)CN3CCN(c4ccccn4)CC3)ccc12 (stereo not drawn)	572 s
Cn1c(=O)c2nc(SCCC(=O)Nc3ccc(F)cc3)n(C)c2n(C)c1=O	690 s
O=C(COc1ccc(F)cc1)N1CCN(Cc2noc3ccccc23)CC1	726 s
CCn1c(C)c(C(=O)C(C)N(Cc2ccc(F)cc2)C(=O)C2CC2)c(C)c1C(=O)OC (stereo not drawn)	1030 s
COCCNC(=O)CSc1cc(N2CCN(c3ccccc3OC)CC2)ncn1	698 s
CCCCc1nnc(NC(=O)C2CC(=O)N(CCc3c[nH]c4ccc(OC)cc34)C2)s1 (stereo not drawn)	766 s
CC(C)n1c(N2CCN(C(=O)c3ccccn3)CC2)cc(=O)n(C(C)C)c1=O	709 s
C=CCn1c(=O)c2ccccc2n(Cc2nc(-c3ccc(CC)cc3)no2)c1=O	1160 s
O=C(NCCCN1CCOCC1)C1CCCN(c2nc3ccccc3n(Cc3ccccc3)c2=O)C1 (stereo not drawn)	720 s
O=C(NC1CCN(c2cc(-c3ccc(F)cc3)[nH]n2)C1)c1cccc(Br)c1 (stereo not drawn)	806 s
Cc1sc(C)c(S(=O)(=O)N2CCN(c3ccccc3F)CC2)c1-c1cc(C(F)(F)F)on1	1330 s
COc1cccc(CNC2=NCCNC23CCN(S(=O)(=O)c2ccc4c(c2)CCCC4)CC3)c1	822 s
O=C(Cc1cccn1-c1ccc(Cl)cc1)NC1CCCC1	945 s
CCc1nc2cc(-c3noc(/C=C/c4ccc(OC)c(OC)c4)n3)ccc2o1	1140 s

Compound	RP-LC retention time
O=C(NC1CCN(c2cc(-c3ccc(Cl)cc3)[nH]n2)C1)c1ccccc1 (stereo not drawn)	712 s
CCOc1ccc(NC(=O)C2CC(=O)N(c3n[nH]c4cccc(F)c34)C2)cc1 (stereo not drawn)	744 s
COC(=O)c1ccc(N2C=C(C#N)S(=O)(=O)c3cc(F)ccc32)cc1	847 s
Cc1cc(NC(C)C)n2nc(-c3ccc(C(C)(C)C)cc3)nc2n1	988 s
COc1ccc2[nH]c(=O)c(CCC(=O)NCc3ccco3)cc2c1	655 s
CN(CCNC(=O)c1ncoc1-c1ccco1)Cc1ccccc1	630 s
COc1ccc(N2CCN(c3nc(C(=O)NC4CC4)cs3)CC2)cc1	832 s
COc1cc(NC(=O)c2ccc(-n3cnc(NC(=O)C4CC4)c3)cc2)cc(OC)c1	744 s
CCN1C(=O)c2cc(S(=O)(=O)Nc3cccc(C)c3)ccc2Oc2cccnc21	1010 s
CC(=O)Nc1ccc(-c2noc(C3CCN(C(=O)CCC4CCCC4)CC3)n2)cc1	924 s
Cc1cc(C(=O)N2CCCCC2)c2c(=O)n(CC(=O)Nc3cc(F)ccc3F)c(=O)n(C)c2n1	837 s
Cc1ccc(F)cc1NC(=O)c1cnc2c(c1)c(=O)n(C)c(=O)n2-c1ccccc1	881 s
CN(CC1(C)CCOCC1)C(=O)c1ccc2cc[nH]c2c1	696 s
O=C(Nc1ccc([N+](=O)[O-])cc1O)Nc1ccccc1Br	914 s
O=C(NCCS(=O)(=O)N1CCN(c2ncccn2)CC1)c1cccs1	663 s
Cc1cc(-c2nnc(C3CCC3)o2)c(C)n1CC(=O)NCc1ccc(F)c(Cl)c1	904 s
c1ccc(-c2nnc(-c3ccncc3)o2)cc1	715 s
Cc1ccc(NC(=O)NCCn2c(-c3ccncc3)nc3cccnc32)c(Cl)c1	652 s
Cc1[nH]c(C(=O)N2CCC(CC(=O)N3CCN(c4ccccc4)CC3)CC2)c(C)c1C(=O)OC(C)C	939 s
CCc1c(C2CCN(C(=O)c3cc(C)oc3C)CC2)noc1N	704 s
COCC1CN(C)CC12CCN(Cc1cccc(OC)n1)CC2 (stereo not drawn)	567 s
CN(Cc1ccco1)S(=O)(=O)c1ccc(C(=O)Nc2cccc(Cl)c2Cl)cc1	1010 s

Compound	RP-LC retention time
c1ccc(C2CN3CCSC3=N2)cc1 (stereo not drawn)	618 s
Cc1ccccc1NC(=O)N1CCC2(C1)C(=O)Nc1ccccc12 (stereo not drawn)	727 s
Cc1cc2c(c(=O)n(-c3ccccc3)c(=O)n2CC(=O)Nc2ccc(Br)cc2F)n1C	894 s
COCCN1C(=O)c2ccccc2C(C(=O)NCc2cccc(F)c2)C12CCCC2 (stereo not drawn)	866 s
CCn1cc(S(=O)(=O)N2CCCCC2c2nc(-c3ccncc3)n[nH]2)cn1 (stereo not drawn)	695 s
O=C(Cc1csc(-n2cccc2)n1)N1CCN(c2ccccn2)CC1	623 s
O=C(c1cccs1)N1CCC(c2noc(-c3ccncc3)n2)C1 (stereo not drawn)	685 s
CCN1c2ccccc2C(=O)NC12CCN(C(=O)Nc1cc(Cl)ccc1OC)CC2	787 s
CCNc1nc(C)cc(N2CCN(C(=O)Nc3cc(OC)cc(OC)c3)CC2)n1	657 s
CN(C)C[C@@H]1CN(c2ccncn2)C[C@H]1NC(=O)c1ccc2c(c1)OCO2	527 s
Cc1cccc(NC(=O)CN2C(=O)C(C(=O)N3CCCC3)Sc3ccccc32)c1C (stereo not drawn)	945 s
Cc1cccc(Cl)c1NC(=O)CN1C(=O)NC2(CCC(C)CC2)C1=O (stereo not drawn)	805 s
O=c1n(Cc2cccc(C(F)(F)F)c2)nc2c(S(=O)(=O)N3CCCC3)cccn12	885 s
Cc1cccc(-n2cc(C(=O)OCc3cc(=O)n4ccccc4n3)c3ccccc3c2=O)c1	906 s
Cc1nc(-c2nc(-c3cccs3)cs2)cn1CC(=O)NCc1ccc(F)cc1	789 s
COC(=O)C1CCN(S(=O)(=O)c2ccc(Cl)c(-c3nnc(-c4ccc(OC)cc4)o3)c2)CC1	1050 s
CCN(C(=O)Cn1nc(C(=O)N2CCCCC2)c2ccccc21)c1cccc(C)c1	1010 s
CCOc1ccc(NC(=O)c2cccc(-n3cnnn3)c2)cc1	737 s
N#Cc1cccc2sc(C(=O)N=C(N)N)cc12	625 s
O=C(NCC1CN(CC2CC2)CC12CCCCC2)Nc1ccc(F)cc1 (stereo not drawn)	687 s
COc1ccc(S(=O)(=O)Nc2ccc3nc(-c4ccc(F)cc4)cc(OC)c3c2)cc1	774 s
Cc1cccc2nnc(N3CCC(C(=O)Nc4ccc(Cl)cc4)CC3)n12	656 s
